Measurements as given in patent US20260193236A1 (Protego Biopharma, Inc., priority 2022, published 2026).
Where a name gives a salt, the structure may show the parent alone.

system: IRE1-XBP1s (XBP1-RLuc splicing reporter in HEK293 T-REx cells); experiment: IRE1-XBP1s activation assay (XBP1-RLuc splicing reporter, HEK293 T-REx cells, luminescence relative to thapsigargin); format: cell-based; settings: 18 h, compound 10 μM, HEK293 T-REx XBP1-RLuc reporter cells, relative to thapsigargin (Tg) 500 nM, read-out: Activity (IRE1-XBP1s activation, luminescence as % signal relative to thapsigargin, % Tg)
Procedure: IRE1-XBP1s activation Assay: HEK293 T-REx cells stably expressing the XBP1-RLuc splicing reporter were treated with an IRE1-XBP1s activator provided herein (10 μM) in the presence or absence of the IRE1 active site inhibitor 4μ8C (32 μM) for 18 h. Luminescence was shown as the percentage signal relative to thapsigargin (Tg) (500 nM, 18 h).

Compound | activation at 10 µM [%]
Cc1ccc(OCCN(C)C(=O)Cn2cc(NC(=O)CCOC3CCC(C)(C)CC3)cn2)cc1 [Compound 3, 3-((4,4-dimethylcyclohexyl)oxy)-N-(1-(2-(methyl(2-(p-tolyloxy)ethyl)amino)-2-oxoethyl)-1H-pyrazol-4-yl)propanamide] | > 50
Cc1ccc(OCCN(C)C(=O)Cn2cc(NC(=O)CCOC3CCCCC3(C)C)cn2)cc1 (stereo not drawn) [Compound 4] | < 30
CCc1ccc(OCCN(C)C(=O)Cn2cc(NC(=O)CCOC3CCCCC3)cn2)cc1 [Compound 5] | 30 to 50
Cc1ccc(OCCN(C)C(=O)Cn2cc(NC(=O)CCOc3cccnc3)cn2)cc1 [Compound 6, N-(1-(2-(methyl(2-(p-tolyloxy)ethyl)amino)-2-oxoethyl)-1H-pyrazol-4-yl)-3-(pyridin-3-yloxy)propanamide] | > 50
Cc1ccc(OCCN(C)C(=O)Cn2cc(NC(=O)CCOc3ccnc(Cl)c3)cn2)cc1 [Compound 8] | > 50
Cc1ccc(OCCN(C)C(=O)Cn2cc(NC(=O)CCOc3ccncc3)cn2)cc1 [Compound 9] | > 50
Cc1ccc(OCCN(C)C(=O)Cn2cc(NC(=O)CCOc3ccc(F)nc3C)cn2)cc1 [Compound 10] | 30 to 50
Cc1ccc(OCCN(C)C(=O)Cn2cc(NC(=O)CCOc3ccc(C)nc3C)cn2)cc1 [Compound 11] | 30 to 50
Cc1ccc(OCCN(C)C(=O)Cn2cc(NC(=O)CCOc3cnccc3C(F)(F)F)cn2)cc1 [Compound 12] | < 30
Cc1ccc(OCCN(C)C(=O)Cn2cc(NC(=O)CCOc3cccnc3C)cn2)cc1 [Compound 13] | 30 to 50
Cc1ccc(OCCN(C)C(=O)Cn2cc(NC(=O)CCOc3c(C)ccnc3C)cn2)cc1 [Compound 14] | 30 to 50
Cc1ccc(OCCN(C)C(=O)Cn2cc(NC(=O)CCOc3c(C(C)C)ccnc3C)cn2)cc1 [Compound 15] | > 50
Cc1ccc(OCCN(C)C(=O)Cn2cc(NC(=O)CCOc3cccnc3C(F)(F)F)cn2)cc1 [Compound 16] | 30 to 50
Cc1ccc(OCCN(C)C(=O)Cn2cc(NC(=O)CCOc3c(C)ccnc3N)cn2)cc1 [Compound 17] | < 30
Cc1ccc(OCCN(C)C(=O)Cn2cc(NC(=O)CCOc3c(F)cncc3F)cn2)cc1 [Compound 18] | > 50
CN(CCOc1ccc(C(F)(F)F)cc1)C(=O)Cn1cc(NC(=O)CCOc2ccncc2F)cn1 [Compound 19] | 30 to 50
Cc1ccc(OCCN(C)C(=O)Cn2cc(NC(=O)CCN(C)c3ccccc3)cn2)cc1 [Compound 21] | < 30
Cc1ccc(OCCN(C)C(=O)Cn2cc(NC(=O)CCN(C(=O)OC(C)(C)C)c3ccccc3)cn2)cc1 [Compound 23] | < 30
COc1ccc(OCCN(C)C(=O)Cn2cc(NC(=O)CCOc3ccccc3)cn2)cc1 [Compound 24] | < 30

Compound | activation at 10 µM [%]
CN(CCOc1ccc(C#N)cc1)C(=O)Cn1cc(NC(=O)CCOc2ccccc2)cn1 [Compound 25] | < 30
CCc1ccc(OCCN(C)C(=O)Cn2cc(NC(=O)CCOc3ccccc3)cn2)cc1 [Compound 26] | > 50
Cc1ccc(OCCN(C)C(=O)Cn2cc(NC(=O)CCNc3ccccc3)cn2)cc1 [Compound 27] | > 50
COc1ccccc1OCCC(=O)Nc1cnn(CC(=O)N(C)CCOc2ccc(C)cc2)c1 [Compound 28] | > 50
CN(CCOc1ccc(F)cc1)C(=O)Cn1cc(NC(=O)CCOc2ccccc2)cn1 [Compound 29] | < 30
Cc1ccc(OCCN(C)C(=O)Cn2cc(NC(=O)CCOc3ccccc3Cl)cn2)cc1 [Compound 32] | > 50
Cc1ccc(OCCN(C)C(=O)Cn2cc(NC(=O)CCOc3ccc4c(c3)OCO4)cn2)cc1 [Compound 33] | > 50
Cc1ccc(OCCN(C)C(=O)Cn2cc(NC(=O)CCOc3ccccc3C)cn2)cc1 [Compound 34] | > 50
Cc1ccc(OCCN(C)C(=O)Cn2cc(NC(=O)CCOc3ccc(F)cc3C)cn2)cc1 [Compound 35] | > 50
COc1cccc(OCCC(=O)Nc2cnn(CC(=O)N(C)CCOc3ccc(C)cc3)c2)c1 [Compound 36] | > 50
Cc1ccc(OCCN(C)C(=O)Cn2cc(NC(=O)CCOc3cccc(N(C)C)c3)cn2)cc1 [Compound 38] | > 50
Cc1ccc(OCCN(C)C(=O)Cn2cc(NC(=O)CCOc3ccc(C)cc3F)cn2)cc1 [Compound 39] | 30 to 50
CN(CCOc1ccc(C(F)(F)F)cc1)C(=O)Cn1cc(NC(=O)CCOc2ccccc2F)cn1 [Compound 40] | > 50
CN(CCOc1cccnc1)C(=O)Cn1cc(NC(=O)CCOc2ccccc2F)cn1 [Compound 41] | < 30
COc1ccc(OCCC(=O)Nc2cnn(CC(=O)N(C)CCOc3ccc(C)cc3)c2)cc1 [Compound 42] | 30 to 50
Cc1ccc(OCCN(C)C(=O)Cn2cc(NC(=O)CCOc3ccc(C(F)(F)F)cc3)cn2)cc1 [Compound 44] | < 30
CN(CCOc1ccc(Cl)nc1)C(=O)Cn1cc(NC(=O)CCOc2ccccc2F)cn1 [Compound 45] | 30 to 50
Cc1ccc(OCCN(C)C(=O)Cn2cc(NC(=O)C(C)COc3ccccc3)cn2)cc1 (stereo not drawn) [Compound 46, 2-methyl-N-(1-(2-(methyl(2-(p-tolyloxy)ethyl)amino)-2-oxoethyl)-1H-pyrazol-4-yl)-3-phenoxypropanamide] | > 50
CN(CCOc1cc(Cl)ccn1)C(=O)Cn1cc(NC(=O)CCOc2ccccc2F)cn1 [Compound 47] | < 30

Compound | activation at 10 µM [%]
Cc1ccc(OCCN(C)C(=O)Cn2cc(NC(=O)CCOc3ccc(Cl)cc3F)cn2)cc1 [Compound 48] | < 30
Cc1ccc(OCCN(C)C(=O)Cn2cc(NC(=O)CCOc3ccc(F)cc3F)cn2)cc1 [Compound 49] | > 50
Cc1ccc(OCCN(C)C(=O)Cn2cc(N(C)C(=O)CCOc3ccccc3)cn2)cc1 [Compound 50] | < 30
Cc1ccc(OCCN(C)C(=O)Cn2cc(N(C)C(=O)CCOc3ccccc3F)cn2)cc1 [Compound 51] | < 30
CCc1ccc(OCCN(C)C(=O)Cn2cc(NC(=O)CCOc3ccccc3F)cn2)cc1 [Compound 52] | 30 to 50
Cc1ccc(OCC(C)N(C)C(=O)Cn2cc(NC(=O)CCOc3ccccc3F)cn2)cc1 (stereo not drawn) [Compound 53] | > 50
Cc1ccc(OCCN(C)C(=O)Cn2cc(NC(=O)CCOc3ccccc3OC(F)(F)F)cn2)cc1 [Compound 54] | 30 to 50
CN(CCOc1ccncc1)C(=O)Cn1cc(NC(=O)CCOc2ccccc2F)cn1 [Compound 55] | < 30
Cc1ccc(OCCN(C)C(=O)Cn2cc(NC(=O)CCOc3c(F)cccc3F)cn2)cc1 [Compound 56] | > 50
Cc1ccc(OCCN(C)C(=O)Cn2cc(NC(=O)CCOc3c(F)cccc3Cl)cn2)cc1 [Compound 57] | 30 to 50
Cc1ccc(OCCN(C)C(=O)Cn2cc(NC(=O)CCOc3c(C)cc(F)cc3C)cn2)cc1 [Compound 58] | 30 to 50
CCc1cc(F)ccc1OCCC(=O)Nc1cnn(CC(=O)N(C)CCOc2ccc(C)cc2)c1 [Compound 59] | < 30
Cc1ccc(OCCN(C)C(=O)Cn2cc(NC(=O)CCOc3ccc(F)cc3C(F)(F)F)cn2)cc1 [Compound 60] | < 30
Cc1ccc(OCCN(C)C(=O)Cn2cc(NC(=O)CCOc3cccc(CO)c3)cn2)cc1 [Compound 61] | > 50
Cc1ccc(OCCN(C)C(=O)Cn2cc(NC(=O)CCOc3ccc(F)cc3C)c(C)n2)cc1 [Compound 65] | < 30
Cc1ccc(OCCN(C)C(=O)Cn2cc(NC(=O)CCOc3ccc(F)cc3C(C)C)cn2)cc1 [Compound 66] | > 50
Cc1ccc(OCCC(=O)Nc2cnn(CC(=O)N(C)CCOc3ccc(C(F)(F)F)cc3)c2)c(F)c1 [Compound 67] | < 30
Cc1ccc(OCCN(C)C(=O)Cn2cc(NC(=O)CCOc3ncc(F)cc3C)cn2)cc1 [Compound 68] | < 30
Cc1ccc(OCCC(=O)Nc2cnn(CC(=O)N(C)CCOc3cccc(OC(F)(F)F)c3)c2)c(F)c1 [Compound 69] | < 30

same assay, conditions: 18 h, read-out: Activity (IRE1-XBP1s activation, luminescence as % signal relative to thapsigargin, % Tg)

Compound | activation at 10 µM [%]
C#CC1CCCCC1OCCC(=O)Nc1cnn(CC(=O)N(C)CCOc2ccc(C)cc2)c1 (stereo not drawn) [Compound 2, 3-((2-ethynylcyclohexyl)oxy)-N-(1-(2-(methyl(2-(p-tolyloxy)ethyl)amino)-2-oxoethyl)-1H-pyrazol-4-yl)propanamide hydrochloride] | > 50
Cc1ccc(OCCN(C)C(=O)Cn2cc(NC(=O)CCOc3ccc(C#N)cc3)cn2)cc1 [Compound 20, 3-(4-cyanophenoxy)-N-(1-(2-(methyl(2-(p-tolyloxy)ethyl)amino)-2-oxoethyl)-1H-pyrazol-4-yl)propanamide] | < 30
CN(CCc1ccc(Cl)cc1)C(=O)Cn1cc(NC(=O)CCOc2ccccc2)cn1 [Compound 22, N-(1-(2-((4-chlorophenethyl)(methyl)amino)-2-oxoethyl)-1H-pyrazol-4-yl)-3-phenoxypropanamide hydrochloride] | < 30
Cc1ccc(OCCN(C)C(=O)Cn2cc(NC(=O)C(C)(C)COc3ccccc3)cn2)cc1 [Compound 37, 2,2-dimethyl-N-(1-(2-(methyl(2-(p-tolyloxy)ethyl)amino)-2-oxoethyl)-1H-pyrazol-4-yl)-3-phenoxypropanamide] | < 30
CN(CCOc1ccccn1)C(=O)Cn1cc(NC(=O)CCOc2ccccc2F)cn1 [Compound 43, 3-(2-fluorophenoxy)-N-(1-(2-(methyl(2-(pyridin-2-yloxy)ethyl)amino)-2-oxoethyl)-1H-pyrazol-4-yl)propanamide] | < 30
Cc1ccc(OCC(C)(C)N(C)C(=O)Cn2cc(NC(=O)CCOc3ccccc3F)cn2)cc1 [Compound 63] | > 50
